Experiments:
Format in all cases: physicochemical
[1] = Test for change in formulation: powder mixed with calcium pantothenate; conditions: 40° C. and 75% humidity, one month
Description: Calcium pantothenate (1 g) and a vitamin B6 derivative (1 g) was uniformly mixed in a mortar to prepare a sample in the form of a powder for stability test. The sample placed in an opened glass bottle was stored in an oven at 40° C. under 75% humidity. Appearance of the sample was examined by visual inspection after 0 day, 14 days, and one month, and the vitamin B6 derivative and calcium pantothenate were quantified by the HPLC method in the same manner as in Test Example 11 mentioned above, provided that the detection wavelength for calcium pantothenate was 210 nm.

[2] = Light stability in a dog food
Description: A vitamin B6 derivative (0.1 g) was added to wheat flour (10 g), and uniformly mixed. The mixture was further successively added with breast meat of chicken (40.0 g), soybean protein (30.0 g), glucose (5.0 g), citric acid (0.001 g), sodium chloride (1.0 g), copper sulfate (0.01 g), iron sulfate (0.01 g), sorbic acid (0.3 g), and propylene glycol (5.0 g), and uniformly mixed. The mixture was made 100 g with purified water, and uniformly mixed to prepare dog food.
The prepared dog food in an amount of 5 g was put into a petri dish, and exposed to light of a D65 fluorescent lamp at a total illumination of 0, 60,000, 180,000, or 300,000 lux·hr, and then the vitamin B6 derivative was quantified by the HPLC method in the same manner as in Test Example 11 mentioned above.

[3] = Light stability in a drinking water
Description: Glucose (4.6 g), Aspartame (0.01 g), citric acid (0.1 g), sodium chloride (0.02 g), potassium chloride (0.02 g), magnesium chloride (0.01 g), calcium lactate (0.04 g), vitamin B6 derivative (0.01 g), sodium L-aspartate (0.07 g), sodium L-glutamate (0.02 g), L-arginine (0.02 g), and aromatic (0.1 g) were dissolved in purified water (70 ml), and then made into a volume of 100 ml with purified water to prepare a drinking water. In this preparation, precipitates and the like were not observed. The prepared drinking water in a volume of 6 ml was filled in a glass bottle, and exposed to light of a D65 fluorescent lamp at a total illumination of 0, 60,000, 180,000, or 300,000 lux·hr, and then the vitamin B6 derivative was quantified by the HPLC method in the same manner as in Test Example 1.

[4] = Test for change in formulation: aqueous solution with calcium pantothenate; conditions: aqueous solution 0.1 g + 0.1 g calcium pantothenate per 100 ml, 40° C., one month
Description: Calcium pantothenate (0.1 g) and a vitamin B6 derivative (0.1 g) were dissolved in purified water and made 100 ml to prepare a sample for stability test in the form of a solution. The sample filled in a sealed glass bottle was stored at 40° C. Appearance of the sample was examined by visual inspection after 0 day, 14 days, and one month, and the vitamin B6 derivative and calcium pantothenate were quantified by the HPLC method in the same manner as in Test Example 11 mentioned above, provided that the detection wavelength for calcium pantothenate was 210 nm.

[5] = D65 fluorescent lamp, 180,000 lux·hr for 3 days
[6] = D65 fluorescent lamp, 300,000 lux·hr for 5 days

Compound: Cc1ncc(CO)c(CO)c1O.Cl [pyridoxine hydrochloride]
- remained calcium pantothenate in the formulation with the substance ([1]; powder 1 g + 1 g calcium pantothenate): 81%
- appearance of the formulation with calcium pantothenate ([1]; powder, visual inspection): the white appearance became brown, and blocking and deliquescence were observed
- remained substance in dog food after irradiation [2, 5]: 90%
- remained substance in dog food after irradiation [2, 6]: 85%
- remained substance in drinking water after irradiation [3, 5]: 68%
- remained substance in drinking water after irradiation [3, 6]: 56%
- remained calcium pantothenate in the formulation with the substance [4]: 83%

Reference: patent US8003615B2, “Stable vitamin B6 derivative” (Daiichi Fine Chemical Co., Ltd., priority 2003, dated 2011)
